Reference: patent US20110166348A1, “NOVEL SALT OF MORPHOLINE DERIVATIVE” (ASTELLAS PHARMA INC., priority 2008, published 2011)
Where “and” joins values, the source holds several entries; their conditions need not be identical. Identical values can stand only once. Counter-ions that a name gives are not always drawn. Like-named read-outs stand apart in the source and are kept apart here. One block for each compound: values may come before it.

How the values were obtained:
[1] = Evaluation of stability (residual ratio of compound A after storage, HPLC-UV); format: physicochemical
Experimental: Evaluation of the decomposed product during storage: Approximately 5 mg of a sample was metered into a 10 mL glass mass flask, and a test was carried out in the following storage conditions.
Condition 1: 40° C.—relative humidity 75%—opening—3 months
Condition 2: 70° C.—light shielding—sealing—2 weeks
Condition 3: 25° C.—D65 (1000 lux)—sealing—2 weeks
A dissolution solvent was filled to a marked line in a mess flask including the sample after storage, the dissolved solution was taken as a sample solution, and the compound A in the sample solution was quantified. Furthermore, the detection of the compound A was carried out with UV at 254 nm and the handling of the devices including data processing was conducted in accordance to the methods and procedures as indicated in each device. (Device: LC-1100 Series manufactured by Agilent).
Further, the quantitative value indicates the residual ratio of the compound A after the test to the compound A before the test.

[2] = Evaluation of hygroscopicity (dynamic steam adsorption/desorption); format: physicochemical
Experimental: Approximately 10 mg of a sample was placed in an exclusively-used quartz-made holder and measured under the conditions of a temperature: 25° C., a measurement range: relative humidity 5 to 95%, a measurement interval: relative humidity 5%. Furthermore, the handling of the devices including data processing was conducted in accordance to the methods and procedures as indicated in each device. (Device: dynamic steam adsorption/desorption measuring device SGA-100, manufactured by VTI).
Measuring temperature: 25° C.; drying before measurement: not done; humidity at the beginning: 5% RH; maximum humidity: 95% RH; humidity at the end: 5% RH; step: 5% RH; equilibrium standard: 0.03 wt % in 5 min; maximum equilibrated time: 180 min; sampling interval: 20 sec; data recording interval: 1 min

[3] = cited from earlier work
[4] = system: L5/L6 spinal nerve ligation models; assay: L5/L6 spinal nerve ligation model of neuropathic pain, von Frey Test; format: in vivo, male SD rats
Experimental: The evaluation of an analgesic effect on neuropathic pain was performed according to the method of Kim et al. using L5/L6 spinal nerve ligation models. That is, the left L5 and L6 […] nerves of male SD rats were tightly ligated with a silk thread under pentobarbital anesthesia, and thereafter, the evaluation was performed. As the assessment of pain behavior, a von Frey Test on the plantar surface of the animals was employed (Pain, 1992, Vol. 50, p. 355-363). That is, the plantar surface of the operated limb of the nerve ligation rat was stimulated by using von Frey filaments until a withdrawal response was observed, and the lowest amount of force (g) required to elicit withdrawal response was defined as a pain threshold. The evaluation of compounds was performed in a period between 7 and 14 days after the operation in which a decrease in the threshold was stably observed. On the previous day of the evaluation of compounds, a von Frey Test was performed and the rats were grouped so as to minimize the variation in the mean value of pain threshold. Each of a solvent (vehicle) and a diluted solution obtained by diluting compound A hydrochloride as a compound A with a solvent so as to give a dose of 30 mg/kg was orally administered to rats in each group. Distilled water was used as a solvent. A pain threshold was measured at 1 hour after administration. […]

[5] = 25° C., relative humidity 5 to 95%
[6] = Condition 1: 40° C., relative humidity 75%, opening, 3 months
[7] = Condition 2: 70° C., light shielding, sealing, 2 weeks
[8] = Condition 3: 25° C., D65 (1000 lux), sealing, 2 weeks

Structure (SMILES): C1=Cc2cccc(OC[C@H]3CNCCO3)c2C1.O=S(=O)(O)c1ccccc1 [Benzenesulfonate (α), (R)-2-[(1H-inden-7-yloxy)methyl]morpholine benzenesulfonate]
- Quantitative Values (%) (residual ratio of the compound A) ([1]; benzenesulfonate): 101% and 100% and 94%
- Weight change(%) [2, 5]: <0.1%

Structure (SMILES): C1=Cc2cccc(OCC3CNCCO3)c2C1.Cl (racemic) [Indeloxazine hydrochloride]
- Stability under normal conditions ([3]; room temperature, tightly closed, light shielding, 36 months): stable
- Weight increase by hygroscopicity ([3]; stored at relative humidity 93% for 14 days at around room temperature): substantially no weight increase

- Quantitative Values (%) (residual ratio of the compound A) [1, 6]: 55%
- Quantitative Values (%) (residual ratio of the compound A) [1, 7]: 100%
- Quantitative Values (%) (residual ratio of the compound A) [1, 8]: 52%
- Relative humidity from which remarkably hygroscopic ([2]; 25° C., FIG. 1): around 75%
- Deliquescence accompanying weight change [2, 5]: accompanied by deliquescence
- Weight change(%) [2, 5]: 48.5 (accompanied %
- Weight change(%) ([2]; 25° C., relative humidity 5 to 95%, listed as hydrochloride of the compound A): 50%
- Relative humidity at which deliquescent ([2]; room temperature): approximately 75%
Structure (SMILES): C1=Cc2cccc(OCC3CNCCO3)c2C1 (single isomer, unassigned; (+)) [Hydrochloride, (+)-2-[(inden-7-yloxy)methyl]morpholine]
- Effect on pain threshold of operated side paw ([4]; 30 mg/kg orally): improved the pain threshold in the operated side of paw to the same level as that in the normal paw
- % Effect (recovery ratio of pain threshold) ([4]; 30 mg/kg, p.o., 1 hour after administration, mean ± SEM, normal side paw 100%, operated side paw 0%): 94.5 ± 17.0 %

Structure (SMILES): C1=Cc2cccc(OC[C@H]3CNCCO3)c2C1.O=S(=O)(O)c1ccccc1 [Benzenesulfonate (β)]
- Quantitative Values (%) (residual ratio of the compound A) [1]: 95% and 84% and 74%
- Weight change(%) [2, 5]: 1.2%

Structure (SMILES): C1=Cc2cccc(OC[C@H]3CNCCO3)c2C1.O=S(=O)(O)c1ccccc1 [benzenesulfonate]
- Weight change(%) [2]: substantially no weight change

Structure (SMILES): Br.C1=Cc2cccc(OC[C@H]3CNCCO3)c2C1 [Hydrobromide (α)]
- Quantitative Values (%) (residual ratio of the compound A) [1, 6]: 98%
- Quantitative Values (%) (residual ratio of the compound A) [1, 7]: 97%
- Quantitative Values (%) (residual ratio of the compound A) [1, 8]: 69%
- Weight change(%) [2, 5]: 12.5%
